{
  "source": "the supplement of paper PMC10307832",
  "experiment_in_all_cases": "relative viability (nuclei count vs DMSO), 5 days (fraction); higher = more cells survive",
  "key": {"[1]": {"compound": "C=CCn1c(=O)c2cnc(Nc3ccc(N4CCN(C)CC4)cc3)nc2n1-c1cccc(C(C)(C)O)n1 [Adavosertib] + Cc1nc(Nc2ncc(C(=O)Nc3c(C)cccc3Cl)s2)cc(N2CCN(CCO)CC2)n1 [Dasatinib] (partner 0.075 µM)", "procedure,_shortened": "(§1)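 Relative viability is defined as nuclei in treated wells over nuclei in vehicle wells. Duplicate plates were run and medians reported. Lung cancer cell lines in 1536-well plates were dosed by pin tool one day after seeding, with one drug or with a fixed anchor-drug dose plus five library-drug doses (not always all listed) in √10 steps, and nuclei were counted after 5 days.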"}, "[2]": {"compound": "C=CCn1c(=O)c2cnc(Nc3ccc(N4CCN(C)CC4)cc3)nc2n1-c1cccc(C(C)(C)O)n1 [Adavosertib] + O=C(CCCCCCC(=O)Nc1ccccc1)NO [Vorinostat] (partner 1 µM)", "procedure,_shortened": "as §1"}, "[3]": {"compound": "C=CCn1c(=O)c2cnc(Nc3ccc(N4CCN(C)CC4)cc3)nc2n1-c1cccc(C(C)(C)O)n1 [Adavosertib] + O=C(c1cc(Cc2n[nH]c(=O)c3ccccc23)ccc1F)N1CCN(C(=O)C2CC2)CC1 [Olaparib] (partner 8 µM)", "procedure,_shortened": "as §1"}, "[4]": {"compound": "COc1nc(N)nc2c1ncn2[C@@H]1O[C@H](CO)[C@@H](O)[C@@H]1O [Nelarabine] + CS(=O)(=O)CCNCc1ccc(-c2ccc3ncnc(Nc4ccc(OCc5cccc(F)c5)c(Cl)c4)c3c2)o1 [Lapatinib] (partner 2 µM)", "procedure,_shortened": "as §1"}, "[5]": {"compound": "COc1nc(N)nc2c1ncn2[C@@H]1O[C@H](CO)[C@@H](O)[C@@H]1O [Nelarabine] + Nc1ncn([C@H]2C[C@H](O)[C@@H](CO)O2)c(=O)n1 [Decitabine] (partner 2 µM)", "procedure,_shortened": "as §1"}},
  "data": [
    {"cell line": "EMC-BAC-2", "values": [
      {"measurement": "relative viability", "setting": "[1]; first compound 0.01 µM", "result": 0.333},
      {"measurement": "relative viability", "setting": "[1]; first compound 0.03162 µM", "result": 0.339},
      {"measurement": "relative viability", "setting": "[1]; first compound 0.1 µM", "result": 0.324},
      {"measurement": "relative viability", "setting": "[1]; first compound 0.3162 µM", "result": 0.261},
      {"measurement": "relative viability", "setting": "[2]; first compound 0.03162 µM", "result": 0.536},
      {"measurement": "relative viability", "setting": "[2]; first compound 0.1 µM", "result": 0.431},
      {"measurement": "relative viability", "setting": "[2]; first compound 0.3162 µM", "result": 0.396},
      {"measurement": "relative viability", "setting": "[3]; first compound 0.03162 µM", "result": 0.493},
      {"measurement": "relative viability", "setting": "[3]; first compound 0.1 µM", "result": 0.51},
      {"measurement": "relative viability", "setting": "[3]; first compound 0.3162 µM", "result": 0.453},
      {"measurement": "relative viability", "setting": "[4]; first compound 0.01 µM", "result": 1.05},
      {"measurement": "relative viability", "setting": "[4]; first compound 0.03162 µM", "result": 0.909},
      {"measurement": "relative viability", "setting": "[4]; first compound 0.1 µM", "result": 0.883},
      {"measurement": "relative viability", "setting": "[4]; first compound 0.3162 µM", "result": 0.962},
      {"measurement": "relative viability", "setting": "[4]; first compound 1 µM", "result": 0.885},
      {"measurement": "relative viability", "setting": "[5]; first compound 0.01 µM", "result": 0.885},
      {"measurement": "relative viability", "setting": "[5]; first compound 0.03162 µM", "result": 1.11},
      {"measurement": "relative viability", "setting": "[5]; first compound 0.1 µM", "result": 0.912},
      {"measurement": "relative viability", "setting": "[5]; first compound 0.3162 µM", "result": 0.864},
      {"measurement": "relative viability", "setting": "[5]; first compound 1 µM", "result": 0.995}
    ]}
  ]
}
